The source of these data is a melting point compilation (Tetko et al.).

Usually melting point stands for the temperature of the solid-liquid transition. `Nc1n[nH]c(C(=O)O)c1-c1ccccc1` showed a melting point of 269 to 271 °C. In the case of `Cn1c(S)nnc1CO`, the melting point lay within 189 to 191 °C. Turning to `O=CNc1ccc2c(c1)OCO2`, the melting point lay within 96 to 98 °C. In the case of `O=C(CCl)Nc1sc2c(c1C(=O)NCc1ccccc1)CCCC2`, the melting point is 306 to 308 °C. Turning to `Cc1nc(COc2ccc(C(=O)O)cc2)cs1`, the melting point fell in the range of 196 to 198 °C.

With `O=C(CO)Nc1ccc(Oc2ccccc2)cc1`, the melting point is 149 to 151 °C. `O=C1C=C(Br)C(=O)N1c1ccccc1` came in with a melting point of 159 to 161 °C. The molecule `O=c1[nH]c2ccccc2n1C1=CCCCC1` came in with a melting point of 181 to 183 °C. The figure for `CS(=O)(=O)N1CCCc2cc(C(=O)CCl)ccc21` is 118 to 120 °C. Regarding `O=C(CCl)NCCC1=CCCCC1`, the melting point fell in the range of 60 to 62 °C. Molecule `COc1cc(C(=O)Cc2nc3ccccc3n2C(F)F)cc(OC)c1OC` had a melting point of 112 to 114 °C. `COc1cc2cc(C(=O)O)[nH]c2cc1OC` came in with a melting point of 199 to 201 °C. For the molecule `COc1ccc2c(CO)cc(=O)oc2c1`, the melting point lay in the range of 177 to 179 °C. Under `Nc1ccc2[nH]c(-c3ccco3)nc2c1` stands 230 to 232 °C; under `O=C(O)c1cc(F)c(F)cc1Br`, 118 to 122 °C; under `Nc1cc(CC2CCCCC2)no1`, 106 to 108 °C.

Consider `Cc1nc(-c2cc3c(s2)CCNC3)cs1`, for which the melting point lay within 111 to 113 °C. As for `Brc1csc(Br)n1`, the melting point is 80 to 84 °C. The figure for `CC(C)(C)OC(=O)NCc1ccc(C(=O)O)cc1` is 164 to 166 °C; for `O=C(O)CCc1ncc(-c2ccccc2Cl)o1` it is 184 to 186 °C; for `O=C(O)c1ccc(-c2ccc3c(c2)OCCO3)s1` it is 204 to 206 °C. For the molecule `Cc1nc2cc(C(=O)O)ccc2n1-c1ccccc1`, the melting point was in the range of 210 to 212 °C. The molecule `Cc1cc(N2C(=O)c3ccccc3C2=O)ccc1C(=O)O` came in with a melting point of 271 to 273 °C. Under `CCOC(=O)c1[nH]c2c(c1C)C(=O)CC(C)(C)C2` stands 159 to 163 °C; under `O=C(O)c1csc(-c2ccc(Cl)cc2Cl)n1`, 204 to 206 °C. `Cc1cc(C(=O)O)c(C)n1-c1cccc(Br)c1` showed a melting point of 158 to 160 °C. The molecule `COC(=O)c1cc(N)cc(C(F)(F)F)c1` came in with a melting point of 78 to 80 °C. In the case of `CC1CC(C)(C)NC1=O` (stereo unspecified), the melting point is 77 to 79 °C. Under `Cn1cc(N2CCC(Br)C2=O)cn1` (stereo unspecified) stands 136 to 138 °C. The figure for `O=S(=O)(F)c1ccc2[nH]ncc2c1` is 175 to 177 °C. Consider `O=C(O)c1cnc2onc(C3CC3)c2c1`, for which the melting point is 206 to 208 °C. Consider `Cc1cccn2cc(COc3ccc(C=O)cc3)nc12`, for which the melting point lay within 122 to 124 °C. Regarding `NC(=O)N1CCN(c2ccccc2F)CC1`, the melting point lay within 150 to 152 °C. In turn, `N#CCC(=O)Cc1ccc(Cl)cc1` had a melting point of 85 to 87 °C. In turn, `Nc1cccc(-n2cnnc2)c1` displayed a melting point of 199 to 201 °C. The figure for `CC(Cl)c1nnc(-c2ccc([N+](=O)[O-])cc2)o1` (stereo unspecified) is 161 to 163 °C; for `COC(=O)C(Cc1c[nH]cn1)NC(C)=O` (stereo unspecified) it is 116 to 118 °C. The figure for `O=C(O)c1cc(-c2ccncc2)nc2ccccc12` is 308 to 310 °C. Molecule `CC(=O)c1cccc(S(=O)(=O)NC(CC(N)=O)C(=O)O)c1` (stereo unspecified) yielded a melting point of 191 to 193 °C. Under `COC(=O)c1oc(CO)cc1C` stands 87 to 89 °C; under `N#CCCNc1ccc2c(c1)OCCO2`, 83 to 85 °C; under `COc1ccc(S(=O)(=O)N(C)C)cc1NC(=O)CCl`, 152 to 154 °C. In turn, `COCCn1cc(C(=O)O)ccc1=O` registered a melting point of 185 to 187 °C. `CC(=O)CC(=O)Nc1cccc(F)c1`: the melting point was in the range of 81 to 83 °C. In turn, `O=C(CSc1nnnn1-c1ccccc1)c1ccc[nH]1` showed a melting point of 182 to 184 °C. With `COC(=O)c1ccccc1NC(=O)CBr`, the melting point was in the range of 78 to 80 °C. The figure for `COc1ccc(C)nc1N` is 87 to 89 °C; for `O=C1CSC(N2CCCCC2)=N1` it is 76 to 80 °C; for `O=C(NCO)c1ccc(Cl)cc1` it is 145 to 147 °C.

Regarding `NC(=O)c1ccc(S(N)(=O)=O)cc1`, the melting point lay in the range of 243 to 245 °C. `O=C(O)c1sc(-c2ccccc2)nc1C(F)F` had a melting point of 179 to 181 °C. For `Cc1nc2c(F)cccc2c(Cl)c1C`, the melting point was 95 to 97 °C.

Regarding `CC(O)c1ccc(S(=O)(=O)Nc2ccc(C(=O)O)cc2)cc1` (stereo unspecified), the melting point fell in the range of 199 to 201 °C.

Turning to `Cc1cc(C(=O)C(C)Cl)c(C)n1-c1ccc(OC(F)F)cc1` (stereo unspecified), the melting point lay within 92 to 96 °C. On to `ClCc1nc(-c2cccc(Br)c2)no1`, for which the melting point lay within 47 to 49 °C. The molecule `FC(F)(F)c1nc(Cl)c2cc(Br)ccc2n1` showed a melting point of 101 to 103 °C. Turning to `O=C(O)c1cccc(CS)c1`, the melting point lay within 104 to 106 °C. The figure for `COC(=O)c1c(C(=O)OC)c(-c2ccc(N)cc2)n2c1CCC2` is 182 to 184 °C; for `O=C(O)c1ccc(Br)cc1S` it is 203 to 205 °C; for `COc1ccc(NS(=O)(=O)c2ccc3oc(S)nc3c2)cc1` it is 175 to 177 °C. `CC(=O)NC1(C(=O)O)CCC(C)CC1` (stereo unspecified): the melting point is 211 to 213 °C. The figure for `Nc1ncnc2ccccc12` is 264 to 266 °C; for `CCN(Cc1ccccc1)S(N)(=O)=O` it is 79 to 81 °C; for `CS(=O)(=O)c1ccccc1N` it is 62 to 64 °C.

`Nc1nc(-c2ccccc2Cl)co1` gave a melting point of 137 to 139 °C. In the case of `O=C1CSC(=S)N1c1ccc(F)cc1`, the melting point fell in the range of 137 to 139 °C. With `Nc1cnn(-c2ncccn2)c1`, the melting point fell in the range of 169 to 171 °C. Turning to `O=C(Nc1cccc(Cl)c1N1CCOCC1)OCC(F)(F)F`, the melting point lay in the range of 74 to 76 °C.

Regarding `Cc1ccc(S(=O)(=O)NC(C)(C)C)cc1N`, the melting point was 124 to 126 °C. Regarding `COc1ccc(Br)c(C#N)c1`, the melting point lay within 101 to 103 °C. For the molecule `O/N=C(/Cc1nc2ccccc2[nH]1)c1cccs1`, the melting point was in the range of 207 to 209 °C. Under `CS(=O)(=O)NC1CCCNC1` (stereo unspecified) stands 123 to 125 °C; under `COc1ccc(Nc2ccccc2C(=O)O)cc1`, 184 to 186 °C. In turn, `CS(=O)(=O)CCC(Cc1cccc(Br)c1)C(=O)O` (stereo unspecified) displayed a melting point of 61 to 63 °C. `COc1cc(OC)cc(N2CCCNCC2)c1` had a melting point of 50 to 52 °C.

Regarding `CNC(C(=O)O)c1cc(F)ccc1F` (stereo unspecified), the melting point lay in the range of 239 to 241 °C. Consider `Cc1ccc(CN(C)C(N)=O)cc1`, for which the melting point fell in the range of 146 to 148 °C. Turning to `CSc1cccc(N)c1C`, the melting point was 44 to 46 °C. `Nc1cc(Br)cc(C(=O)O)c1` yielded a melting point of 217 to 221 °C. Under `O=C(O)CC1(CC(=O)Nc2nccs2)CCCCC1` stands 175 to 177 °C; under `O=C1C=CC=NC1=C(O)Nc1cccnc1`, 120 to 122 °C; under `O=C1COc2ccc(C(=O)CBr)cc2N1`, 190 to 192 °C. With `[N-]=[N+]=Nc1ccc(Br)cc1Cl`, the melting point lay in the range of 60 to 62 °C. Turning to `Nc1cc(Br)c(F)cc1Cl`, the melting point was 71 to 73 °C. Consider `CN(C)S(=O)(=O)c1ccc(Cl)c(C(=O)NCCCCCC(=O)O)c1`, for which the melting point fell in the range of 84 to 86 °C. With `NCc1ccccc1N1CCCC(C(N)=O)C1` (stereo unspecified), the melting point was 97 to 99 °C.
